# In patent publication US12252457B2, “Compositions and methods for reducing tactile dysfunction, anxiety, and social impairment” (President and Fellows of Harvard College, priority 2018, dated 2025):
# Values joined by “and” are separate entries in the source; they are usually repeats but may differ in a detail not shown here. Equal values may be shown once. Where a name gives a salt, the structure may show the parent alone.
# Legend:
# SNL rats = experiment: Rat spinal nerve ligation (SNL) model of neuropathic pain, Von Frey 50% paw withdrawal threshold; assay type: in vivo, SD Rat; details: for 50% g Threshold, individual animals: 5 mg/kg; for neuropathic pain sensitivity / mechanical hypersensitivity (mechanical allodynia): SNL rats, Von Frey stimulation of hindpaw glabrous skin; for 50% g Threshold, group Mean: n=8
# Procedure: Chung surgery were conducted on anesthetized rats. Rats were habituated in the testing environment for 15 minutes before allodynia measurement (2-3 times). Pre-dose baseline were taken on day 9 post surgery. Rats that don't show allodynic response at this point were excluded. SNL rats with a paw withdrawal threshold >4 g. The animals were grouped according to 50% paw withdrawal threshold (g) and weight. The animals were dosed test articles and vehicle according to the dose protocol. On the testing day (Day 9), rats were dosed with testing articles with 16 min interval between groups. Rats were measured for allodynic response at 0.75, 1.5, 3 h time point post dosing. All values will be expressed as mean±S.E.M. The significance of the differences among groups will be evaluated by two-way ANOVA followed by Dunnett's test using graphpad Prism 6 software. A p value of less than 0.05 is considered statistically significant.
# [1] = Bio-distribution of isoguvacine by LC-MS; assay type: in vivo, mouse
# Procedure: FIGS. 19A-19N show acute administration of the peripherally-restricted GABAA receptor agonist isoguvacine improves tactile hypersensitivity in five genetic and one environmental model of ASD. […] Two-way ANOVA with post-hoc Sidak's test, *, p<0.05. FIG. 19B: Response to a light air puff stimulus alone in mice following i.p. administration of either saline or 2 mg/kg midazolam treatment. Responses are expressed as percent of startle response to a 125 dB noise. Two-way ANOVA with post-hoc Sidak's test, *, p<0.05. FIG. 19C: Magnitude of startle response to a 125 dB noise in mice following i.p. administration of either saline or 2 mg/kg midazolam treatment. Responses are expressed as percent of startle response to a 125 dB noise. Two-way ANOVA with post-hoc Sidak's test, *, p<0.05. FIG. 19D: Magnitude of startle response to a 125 dB noise in mice following i.p. administration of saline, midazolam (2 mg/kg) or a peripherally-restricted GABAA receptor agonist, isoguvacine (2 mg/kg). Responses are expressed as percent of startle response to a 125 dB noise. Two-way ANOVA with post-hoc Sidak's test, *, p<0.05. FIGS. 19E-19G: Liquid chromatography mass spectrometry (LC-MS) quantified isoguvacine concentrations in cerebrospinal fluid (CSF) (FIG. 19E), blood (FIG. 19F) or liver (FIG. 19G) samples of mice treated with: i.p. saline, i.p. isoguvacine (“Iso.”, 20 mg/kg, samples collected 1, 3 or 24 hours post-injection), intracerebral injection isoguvacine (20 mg/kg, 1 hour post-injection), i.p. diazepam (“DZ”, 20 mg/kg, 1 hour post injection) or intracerebral injection diazepam (20 mg/kg, 1 hour post injection). FIG. 19H: Normalized peak chloride flux through α1β3γ2- and α2β3γ2-containing GABAA receptors in response to isoguvacine application. […] FIGS. 19I-19K: GABAA receptor subunit RNA expression levels across peripheral somatosensory neuron subtypes, for the alpha (FIG. 19I), beta (FIG. 19J), and gamma (FIG. 19K) subunit types. […] Two-way ANOVA with post-hoc Sidak's test, *, p<0.05. FIG. 19M: Response to a light air puff stimulus alone in mice following i.p. administration of either saline or 2 mg/kg isoguvacine treatment. Responses are expressed as percent of startle response to a 125 dB noise. Two-way ANOVA with post-hoc Sidak's test, *, p<0.05. FIG. 19N: Magnitude of startle response to a 125 dB noise in mice following i.p. administration of either saline or 2 mg/kg isoguvacine treatment. Responses are expressed as percent of startle response to a 125 dB noise. […]
# FIGS. 28A-28U are related to FIGS. 21A-210. FIG. 28A: Liquid chromatography mass spectrometry (LC-MS) quantified isoguvacine concentrations in brain homogenate samples of mice treated with isoguvacine (2 mg/kg, i.p.) from P1-42. […] Responses are expressed as percent of startle response to a 125 dB startle noise. […]
# [2] = 0 Hour (pre-dose baseline), 5 mpk IP
# [3] = printed in the 0.75 Hour column, 5 mpk IP
# [4] = printed in the 1.5 Hour column, 5 mpk IP
# [5] = printed in the 3 Hour column, 5 mpk IP
# [6] = after six-week treatment, 2 mg/kg i.p. daily starting at P0
smiles,measurement,setting,value
"NC1C=C(C(=O)O)CCC1 (stereo not shown) [Compound 5, 3-aminocyclohex-1-enecarboxylic acid hydrochloride]",Von frey test (MEAN ± S.E.M.),SNL rats; [2],2.3 ± 0.34 g
same,"50% g Threshold, individual animals","SNL rats; 0 Hour (pre-dose baseline, day 9 post surgery), 5 mpk IP, hydrochloride",0.99 g and 1.10 g and 1.56 g and 2.64 g and 2.81 g (2×) and 3.31 g (2×)
same,"50% g Threshold, individual animals","SNL rats; 0.75 Hour post dosing, 5 mpk IP, hydrochloride",3.33 g and 4.12 g and 2.81 g and 1.85 g and 4.34 g and 3.31 g and 2.37 g and 6.74 g
same,Von frey test (MEAN ± S.E.M.),"SNL rats; 0.75 Hour, 5 mpk IP",3.6 ± 0.54 g
same,"50% g Threshold, individual animals","SNL rats; 1.5 Hour post dosing, 5 mpk IP, hydrochloride",6.74 g (2×) and 5.10 g and 1.85 g and 3.71 g (2×) and 3.31 g and 1.56 g
same,Von frey test (MEAN ± S.E.M.),"SNL rats; 1.5 Hour, 5 mpk IP",4.1 ± 0.70 g
same,"50% g Threshold, individual animals","SNL rats; 3 Hour post dosing, 5 mpk IP, hydrochloride",6.42 g and 3.33 g and 2.81 g and 2.61 g and 3.71 g and 4.34 g and 0.82 g and 7.91 g
same,Von frey test (MEAN ± S.E.M.),"SNL rats; 3 Hour, 5 mpk IP",4.0 ± 0.79 g
same,neuropathic pain sensitivity / mechanical hypersensitivity (mechanical allodynia),SNL rats; hydrochloride,reduce tactile over-reactivity (mechanical allodynia)
same,neuropathic pain sensitivity / mechanical hypersensitivity (mechanical allodynia),"SNL rats; listed as compound 5, hydrochloride",reduce neuropathic pain sensitivity
same,"50% g Threshold, group Mean",SNL rats; [3],2.31 g
same,"50% g Threshold, group Mean",SNL rats; [4],3.61 g
same,"50% g Threshold, group Mean",SNL rats; [5],4.09 g
"O=C(O)C1=CCNCC1 [Isoguvacine, isoguvacine]",drug in blood and liver,[1]; 20 mg/kg i.p.,detected in the blood and liver
same,drug in brain or cerebrospinal fluid,[1]; 20 mg/kg i.p.,undetectable in the brain or cerebrospinal fluid
same,drug in brain or spinal cord,[1]; [6],not the brain or spinal cord
same,drug in liver,[1]; [6],detected in liver
same,Von frey test (MEAN ± S.E.M.),SNL rats; [2],2.3 ± 0.33 g
same,"50% g Threshold, individual animals","SNL rats; 0 Hour (pre-dose baseline, day 9 post surgery), 5 mpk IP",0.99 g and 1.10 g and 1.85 g and 2.23 g and 2.81 g and 3.00 g and 3.31 g (2×)
same,"50% g Threshold, individual animals","SNL rats; 0.75 Hour post dosing, 5 mpk IP",1.31 g (2×) and 2.37 g (2×) and 2.81 g and 1.56 g (2×) and 0.99 g
same,Von frey test (MEAN ± S.E.M.),"SNL rats; 0.75 Hour, 5 mpk IP",1.8 ± 0.23 g
same,"50% g Threshold, individual animals","SNL rats; 1.5 Hour post dosing, 5 mpk IP",1.85 g (3×) and 2.37 g and 0.82 g and 2.81 g and 1.56 g and 2.64 g
same,Von frey test (MEAN ± S.E.M.),"SNL rats; 1.5 Hour, 5 mpk IP",2.0 ± 0.23 g
same,"50% g Threshold, individual animals","SNL rats; 3 Hour post dosing, 5 mpk IP",2.81 g and 6.74 g and 7.91 g and 3.33 g and 5.15 g and 4.34 g and 5.77 g and 3.31 g
same,Von frey test (MEAN ± S.E.M.),"SNL rats; 3 Hour, 5 mpk IP",4.9 ± 0.64 g
same,analgesia effect,"SNL rats; 3 hour time point, 5 mpk IP",significant analgesia effect
same,neuropathic pain sensitivity / mechanical hypersensitivity (mechanical allodynia),SNL rats,reduce neuropathic pain sensitivity
same,neuropathic pain sensitivity / mechanical hypersensitivity (mechanical allodynia),SNL rats; listed as isoguvacine,reduce tactile over-reactivity (mechanical allodynia)
same,"50% g Threshold, group Mean",SNL rats; [3],2.32 g
same,"50% g Threshold, group Mean",SNL rats; [4],1.78 g
same,"50% g Threshold, group Mean",SNL rats; [5],1.97 g
